The results in this text go back to ChEMBL document CHEMBL1201862, “PubChem BioAssay data set” (2004).

Some test systems named below: TK-10; SK-OV-3; KM12; LOX IMVI; A498; HOP-92; ACHN; NCI-H226; A549; M19-MEL; RXF 393; K562; NCI-H460; OVCAR-5; HL-60; SF-268; HOP-62; RPMI-8226.
Common to all, as to assay: growth of human tumour cells (NCI), 48 h

Each structure is given as a SMILES string.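 Where inhibition never reached the appropriate level, the endpoint shown equals the highest concentration tested. Otherwise, values were interpolated linearly from a five-concentration, 48-hour dose response in 96-well plates. The concentration for 50% growth inhibition is given as GI50.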 Activity calls are given as the source filed them. No stated cut-off is given here; in the data, active = GI50 up to about 1.1 µM and inactive = higher.

For the compound `CCc1ccccc1NC(=O)C(=O)CC(=O)c1sc(Nc2ccccc2)nc1C`, the GI50 with TK-10, in the experiment with SK-OV-3, in the experiment on KM12, in the experiment on LOX IMVI, with A498 and in the experiment with HOP-92 was > 100 µM (inactive) each time. Also, the GI50 in the experiment on ACHN is > 100 µM (inactive); with NCI-H226, > 100 µM (inactive); in the experiment on A549 it was > 100 µM (inactive); in the experiment with M19-MEL, > 100 µM (inactive); with RXF 393, > 100 µM (inactive); in the experiment with K562, 97.1 µM (inactive). Further, the GI50 in the experiment on NCI-H460 is > 100 µM (inactive); in the experiment on OVCAR-5, > 100 µM (inactive); in the experiment with HL-60, 89.1 µM (inactive); in the experiment on SF-268, > 100 µM (inactive); in the experiment with HOP-62, > 100 µM (inactive).

Consider `O=C(Nc1ccccc1Br)c1cccc([N+](=O)[O-])c1O`, for which the GI50 is 1.54 µM (inactive) in the experiment on TK-10; 3.95 µM (inactive) in the experiment with SK-OV-3; 4.26 µM (inactive) with KM12; 1.52 µM (inactive) with RPMI-8226; 2.38 µM (inactive) with LOX IMVI; 2.49 µM (inactive) in the experiment on A498. For the same compound, the GI50 in the experiment on HOP-92 was 1.63 µM (inactive); in the experiment with ACHN, 3.67 µM (inactive); in the experiment with NCI-H226, 3.3 µM (inactive); in the experiment on A549 it was 3.37 µM (inactive); with M19-MEL, 2.51 µM (inactive); in the experiment on RXF 393, 1.86 µM (inactive). The GI50 in the experiment with K562 is 3.13 µM (inactive); in the experiment with NCI-H460 it was 4.6 µM (inactive); with OVCAR-5 it was 5.13 µM (inactive); in the experiment on HL-60, 2.9 µM (inactive); in the experiment on SF-268, 4.47 µM (inactive); in the experiment with HOP-62, 2.32 µM (inactive).

Regarding `O=C1C2=C(CCCC2)Nc2cccc3ncn1c23`, the GI50 in the experiment with TK-10, in the experiment with SK-OV-3, in the experiment on KM12, in the experiment with RPMI-8226, in the experiment on LOX IMVI and with A498 was > 100 µM (inactive) in each case. The GI50 with HOP-92, with ACHN, in the experiment on A549, in the experiment with M19-MEL, with RXF 393 and with K562 was > 100 µM (inactive) throughout. Also, the GI50 with NCI-H460, in the experiment with OVCAR-5, in the experiment with HL-60, in the experiment with SF-268 and in the experiment on HOP-62 was > 100 µM (inactive) throughout.

For `CC1=C(C(=O)NCc2ccccc2)C(c2ccccc2C)C(C(=O)NCc2ccccc2)=C(C)N1`, the GI50 in the experiment on TK-10 is 41.7 µM (inactive); with SK-OV-3 it was 91.2 µM (inactive); in the experiment with KM12 it was 24.8 µM (inactive); in the experiment with RPMI-8226, 29.9 µM (inactive); in the experiment with LOX IMVI, 17.7 µM (inactive); with A498, 44.3 µM (inactive). Besides, the GI50 in the experiment on HOP-92 was 39 µM (inactive); in the experiment with ACHN it was 20 µM (inactive); in the experiment with NCI-H226 it was 30.7 µM (inactive); in the experiment with A549 it was 49.8 µM (inactive); in the experiment with M19-MEL, 33 µM (inactive); in the experiment with RXF 393 it was 23.7 µM (inactive). Also, the GI50 with K562 is 38.5 µM (inactive); in the experiment on NCI-H460, 19.5 µM (inactive); with OVCAR-5 it was 35.9 µM (inactive); in the experiment with HL-60, 21 µM (inactive); in the experiment on SF-268, 22.8 µM (inactive); with HOP-62, 29.9 µM (inactive).

`Nc1ccc2c(c1)Oc1c(F)c(F)cc3c(=O)c(C(=O)O)cn-2c13`: the GI50 in the experiment with TK-10 was 38.1 µM (inactive); in the experiment with SK-OV-3 it was > 100 µM (inactive); with KM12, 23.6 µM (inactive); in the experiment with RPMI-8226, 25.2 µM (inactive); in the experiment on A498, 4 µM (inactive); with HOP-92, 25.1 µM (inactive). The GI50 with A549 was 32.9 µM (inactive); in the experiment with M19-MEL, 34.9 µM (inactive); in the experiment on RXF 393, 43.8 µM (inactive); in the experiment on K562 it was 59.6 µM (inactive); in the experiment on OVCAR-5, > 100 µM (inactive); in the experiment on HL-60 it was 38.9 µM (inactive). For the same compound, the GI50 in the experiment with SF-268 is > 10 µM (inactive); with HOP-62, 31.7 µM (inactive).

Turning to `Cc1c(Cl)ccc2c1NC(=O)C2(O)C1Cc2ccccc2C1=O` (configuration not stated), the GI50 in the experiment on TK-10 is > 100 µM (inactive); in the experiment on SK-OV-3, > 100 µM (inactive); in the experiment on KM12, > 100 µM (inactive); in the experiment on RPMI-8226 it was 42.5 µM (inactive); with LOX IMVI, > 100 µM (inactive); in the experiment with A498 it was > 100 µM (inactive). Further, the GI50 was > 100 µM (inactive) in the experiment with HOP-92; > 100 µM (inactive) in the experiment with ACHN; > 100 µM (inactive) with NCI-H226; > 100 µM (inactive) with A549; > 100 µM (inactive) in the experiment on M19-MEL; 57.9 µM (inactive) with RXF 393. In addition, the GI50 in the experiment on K562 is 62.1 µM (inactive); with NCI-H460, > 100 µM (inactive); in the experiment with OVCAR-5, > 100 µM (inactive); in the experiment on HL-60 it was 21.2 µM (inactive); in the experiment with SF-268 it was > 100 µM (inactive); in the experiment on HOP-62 it was > 100 µM (inactive).

In the case of `CC(=O)OC1=C2CC3(C)OC(=O)CC(C)(C)C3=CC=C2C=C(C(C)C)C1=O` (configuration not stated), the GI50 in the experiment with TK-10 was 1.21 µM (inactive); in the experiment with SK-OV-3, 2.09 µM (inactive); in the experiment with KM12, 1.15 µM (inactive); in the experiment on RPMI-8226 it was 0.22 µM (active); in the experiment on LOX IMVI, 0.201 µM (active); in the experiment on A498 it was 1.57 µM (inactive). The GI50 in the experiment on HOP-92 is 0.207 µM (active); with ACHN, 0.518 µM (active); with NCI-H226, 1.74 µM (inactive); with A549 it was 1.9 µM (inactive); with M19-MEL it was 0.526 µM (active); in the experiment on RXF 393, 0.184 µM (active). The GI50 is 0.307 µM (active) with K562; 1.51 µM (inactive) in the experiment on NCI-H460; 0.912 µM (active) in the experiment on OVCAR-5; 0.28 µM (active) in the experiment with HL-60; 1.05 µM (active) in the experiment with SF-268; 11.4 µM (inactive) in the experiment on HOP-62.

Consider `[N-]=[N+]=NC1CC(n2cc(COCC(F)(F)F)c(=O)[nH]c2=O)OC1CO` (configuration not stated), for which the GI50 in the experiment on TK-10, with SK-OV-3, in the experiment on KM12, with RPMI-8226, in the experiment on LOX IMVI and with A498 was > 100 µM (inactive) each time. The GI50 in the experiment with HOP-92, in the experiment with ACHN, in the experiment with A549, in the experiment on M19-MEL, in the experiment on RXF 393 and in the experiment on K562 was > 100 µM (inactive) in each case. In addition, the GI50 in the experiment on NCI-H460, in the experiment with OVCAR-5, in the experiment with HL-60, with SF-268 and with HOP-62 was > 100 µM (inactive) throughout.
